Among the test systems are LXFL 529 NSCLC; RXF-631 renal; M19-MEL melanoma; DLD-1 colon; DMS 273 small cell lung; XF 498 CNS; HOP-18 NSCLC; MDA-N; T-47D breast; SN12K1 renal; P388 leukemia.
Common to all, as to assay: NCI tumour cell line growth inhibition, 48 h

This passage reports TGI and GI50 results from PubChem BioAssay (NCI).

“And” between values parts separate entries of the source, which are not always exact repeats. Equal entries are not always repeated.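 In this assay, cells in 96-well plates receive the compound at five concentrations for 48 hours. Endpoints are linearly interpolated between the surrounding concentrations. Here, GI50 denotes the concentration required for 50% inhibition of growth. At the TGI there is no net growth.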 Where only a bound is given, the exact number is not on record here.

On to `CNC(=O)CN(CC(=O)O)C(=O)NC`, for which the TGI with LXFL 529 NSCLC, with RXF-631 renal, in the assay on M19-MEL melanoma, with DLD-1 colon, with DMS 273 small cell lung and in the assay with XF 498 CNS was above 100 µM each time.
`COc1cc(/C=N/N=C(\N)NO)c([N+](=O)[O-])cc1OC`: the TGI in the assay on LXFL 529 NSCLC, in the assay on RXF-631 renal, in the assay on M19-MEL melanoma, in the assay with DLD-1 colon, in the assay with DMS 273 small cell lung and in the assay on HOP-18 NSCLC was above 100 µM throughout.
On to `CO[C@@]1(c2ccccc2)O[C@H]2OCCC2[C@H]1c1ccc(Cl)cc1` (stereo not given in full), for which the TGI in the assay with LXFL 529 NSCLC was above 100 µM; in the assay with RXF-631 renal, above 100 µM; in the assay on DLD-1 colon, above 100 µM; in the assay with DMS 273 small cell lung, above 100 µM; in the assay with XF 498 CNS it was 69.3 µM; with HOP-18 NSCLC, 99 µM.
Turning to `COc1cc(C(=O)c2cocc2C(=O)c2ccc3c(c2)OCO3)cc(OC)c1OC`, the TGI is above 31.6 µM in the assay on LXFL 529 NSCLC; 0.311 µM in the assay on MDA-N; above 100 µM with M19-MEL melanoma; above 100 µM in the assay on DLD-1 colon; above 100 µM with DMS 273 small cell lung; 32.1 µM in the assay with XF 498 CNS. The TGI with HOP-18 NSCLC is above 100 µM.
Regarding `CC1=CCCC2C(C=O)(C1)CC(C)C2(CO)CC/C(=C/CO)CO` (stereo not given), the TGI in the assay with LXFL 529 NSCLC, in the assay with RXF-631 renal, with M19-MEL melanoma, with DLD-1 colon, in the assay with DMS 273 small cell lung and in the assay with HOP-18 NSCLC was above 100 µM throughout.
Turning to `CCCCN(CCCC)CC(C(C)=O)C(c1ccccc1)c1c(O)c2ccccc2oc1=O` (stereo not given), the TGI with LXFL 529 NSCLC, in the assay with RXF-631 renal, in the assay with M19-MEL melanoma, with DLD-1 colon, in the assay on DMS 273 small cell lung and in the assay with XF 498 CNS was above 100 µM in each case. Besides, the TGI with HOP-18 NSCLC was above 100 µM.
`CC(=O)NN1C(=O)C(Cc2ccccc2)c2ccccc21` (stereo not given): the TGI in the assay with RXF-631 renal, with M19-MEL melanoma, in the assay with DLD-1 colon, in the assay with DMS 273 small cell lung, in the assay with XF 498 CNS and in the assay with HOP-18 NSCLC was above 100 µM throughout.
Take `COC(=O)N/N=C(\C)CC(=O)Nc1ccc(Cl)cc1`: the TGI in the assay with LXFL 529 NSCLC, with RXF-631 renal, with M19-MEL melanoma, in the assay with DLD-1 colon and with XF 498 CNS was above 100 µM in each case.
For `O=C1NC2C(O)CCCCC2C12CCCCC2` (stereo not given), the TGI with LXFL 529 NSCLC, in the assay on RXF-631 renal, with M19-MEL melanoma, with DLD-1 colon, with DMS 273 small cell lung and in the assay with XF 498 CNS was above 100 µM each time. The TGI in the assay on HOP-18 NSCLC is above 100 µM.
On to `CCC1=C(CC2NCCc3ccccc32)CC2c3cc(OC)c(OC)cc3CCN2C1` (stereo not given), for which the TGI with LXFL 529 NSCLC was above 100 µM; in the assay on RXF-631 renal, 4.44 µM; with T-47D breast it was 16.8 µM and 5.85 µM; in the assay on MDA-N it was 8.25 µM; in the assay on M19-MEL melanoma it was 29.5 µM; with DLD-1 colon, above 100 µM. The TGI in the assay on DMS 273 small cell lung was determined as 3.02 µM; with XF 498 CNS it was 13 µM. In the assay on T-47D breast, the GI50 is 3.9 µM.
With `C[CH2][Sn]([CH2]C)([O]C(=O)c1ccc(F)cc1)[O]C(=O)c1ccc(F)cc1`, the GI50 in the assay on LXFL 529 NSCLC was 7.84 µM; in the assay with RXF-631 renal, 17.5 µM; in the assay with DLD-1 colon, 23.9 µM; in the assay with DMS 273 small cell lung, 55.6 µM; with XF 498 CNS it was 20.2 µM; with HOP-18 NSCLC it was 16.1 µM. The TGI is 21.1 µM in the assay with LXFL 529 NSCLC; 32.3 µM with RXF-631 renal; above 65.8 µM in the assay with DLD-1 colon; above 100 µM in the assay with DMS 273 small cell lung; 37.3 µM in the assay with XF 498 CNS; 29.6 µM in the assay with HOP-18 NSCLC.
Turning to `c1ccc(OC2=NC3=S(S2)SC(Oc2ccccc2)=N3)cc1`, the TGI in the assay on RXF-631 renal amounted to 52.1 µM; in the assay on M19-MEL melanoma it was 34.7 µM; with DLD-1 colon, 35 µM; in the assay with DMS 273 small cell lung it was 85.6 µM; with XF 498 CNS, 32 µM.
In the case of `CC(C)(C)N=NC(C)(C)N=C=O`, the TGI in the assay with LXFL 529 NSCLC, with M19-MEL melanoma, in the assay on DLD-1 colon, in the assay on DMS 273 small cell lung, in the assay with XF 498 CNS and in the assay on HOP-18 NSCLC was above 100 µM in each case.
Consider `O=C[C@@H](CO)O[C@H](C=O)n1cnc2c(=O)[nH]cnc21`, for which the TGI in the assay with SN12K1 renal stood at 1570 µM; with P388 leukemia, 374 µM; with T-47D breast, 404 µM; in the assay with MDA-N, 1610 µM; with M19-MEL melanoma, 1540 µM; with DLD-1 colon, 395 µM. Moreover, the figures for the TGI with DMS 273 small cell lung, in the assay on XF 498 CNS and in the assay with HOP-18 NSCLC were 1570 µM, 1690 µM and 1670 µM, respectively.
As for `C=C1C[C@@H]2C[C@@H](C)CC(O)[C@]2(CCCN)C1O` (stereo not given in full), the TGI with LXFL 529 NSCLC, in the assay with RXF-631 renal, in the assay on M19-MEL melanoma, in the assay on DLD-1 colon, in the assay with DMS 273 small cell lung and in the assay on XF 498 CNS was above 100 µM each time. Further, in the assay with HOP-18 NSCLC, the TGI was above 100 µM.
For `CC1c2[nH]c3ccccc3c2CCN1O` (stereo not given), the TGI in the assay on LXFL 529 NSCLC, in the assay on RXF-631 renal, with M19-MEL melanoma, with DLD-1 colon, in the assay on DMS 273 small cell lung and in the assay on HOP-18 NSCLC was above 100 µM in each case.
As to `COc1cc2cnc3c4cc(OCc5ccccc5)ccc4ccc3c2cc1OC`, the TGI in the assay on LXFL 529 NSCLC is above 100 µM; in the assay on RXF-631 renal it was 98.8 µM; in the assay on M19-MEL melanoma, above 100 µM; in the assay on DLD-1 colon it was above 100 µM; with HOP-18 NSCLC, above 100 µM.
Take `COc1ccc([C@@H]2OC(=O)C3C2C(=O)O[C@H]3c2ccc(OC)c(OC)c2)cc1OC` (stereo not given in full): the TGI in the assay with RXF-631 renal, in the assay with M19-MEL melanoma, in the assay with DMS 273 small cell lung, in the assay on XF 498 CNS and with HOP-18 NSCLC was above 100 µM each time.
